For data set [1], the system named is HCV replicon (5-2 Luc replicon-comprising cells). The data set can be described thus: HCV replicon assay (luciferase). The data set is classed as cell-based, Hepatitis C virus. Conditions: Hepatitis C virus; 5-2 Luc replicon cells, luciferase readout; read-out: Replicon IC50. In a few lines: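 Huh7-derived 5-2 Luc replicon cells seeded 24 h at 37 °C, then exposed to compound at various concentrations for another 24 h. Luciferase quantified by Bright-Glo luminescence; IC50 = concentration giving 50% reduction in luciferase activity; reported as +/− at a 10 μM cut-off.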
On the technique in general: In antiviral work, replicon cells carry a viral genome segment that copies itself.

A short description of data set [2]: Cytotoxicity assay (Cell Titer Glo). It counts as cell-based. The following applies: human; 48 hr with compound, ATP-dependent Cell Titer Glo assay; read-out: IC50 in cytotoxicity assay (number of viable cells). The method, then:
Compounds 67, 167, 169, 13, 1, 145, 29, 119, 63, 31, 39, 103, 123, 121, 97, 129, 79, 111, 85, 89, 109, 127, 131, 95, 47, 57, 69, 165, 161, 163, 3, 137, 15, 141, 41, 53, 33, 113, 93, 105, 77, 91, 81, 83, 35, 27, 65, 7, 135, 51, 139, 51, 49, 143, 5, 149, 11, 37, 21, 45, 61, 75, 23, 125, 73, 43, 171 and 101 were tested in a cytotoxicity assay with liver cells including an HCV replicon (5-2 Luc cells, 9–13 cells or Huh-7 cells). In the assay, cells were seeded onto 96-well plates (approx. 7500 cells/well in a volume of 90 μl) and grown for 24 hr at 37° C. On day 2, various concentrations of test compound (in a volume of 10 μl) were added to the wells and the cells were grown for an additional 48 hr at 37° C. On day 4, an ATP-dependent R-Luciferase assay (Cell Titer Glo assay) was performed to determine the number of viable cells.

pIC50: −log10 of the molar value.

Take `O=C(Nc1cccc(-c2cc(-c3c(Cl)cccc3Cl)no2)c1)C(Br)Br` [Compound 29, 2,2-Dibromo-N-[3-[3-(2,6-dichlorophenyl)-5-isoxazolyl]phenyl]Acetamide]: the pIC50 in data set [1] is over 5.00. Besides, the IC50 at 48 h in data set [2] is over 10 µM.
For `Cc1cccc(Cl)c1-c1cc(-c2cccc(NC(=O)C(Cl)Cl)c2)on1` [Compound 31, 2,2-Dichloro-N-[3-[3-(2-chloro-6-methylphenyl)-5-isoxazolyl]phenyl]Acetamide], in that order: over 5.00 and over 10 µM.
For `O=C(Nc1cccc(-c2cc(-c3ccccc3C(F)(F)F)no2)c1)C(Cl)Cl` [Compound 33, 2,2-Dichloro-N-[3-[3-(2-trifluoromethylphenyl)-5-isoxazolyl]phenyl]Acetamide], in that order: over 5.00 and over 10 µM.
For `O=C(Nc1cccc(-c2cc(-c3c(O)cccc3C(F)(F)F)no2)c1)C(Cl)Cl` [Compound 35, 2,2-Dichloro-N-[3-[3-(2-hydroxy-6-trifluoromethylphenyl)-5-isoxazolyl]phenyl]Acetamide], in that order: over 5.00 and over 10 µM.
`CC(C)c1cccc(Cl)c1-c1cc(-c2cccc(NC(=O)C(Cl)Cl)c2)on1` [Compound 39, 2,2-Dichloro-N-[3-[3-(2-chloro-6-isopropylphenyl)-5-isoxazolyl]phenyl]Acetamide]: the pIC50 in data set [1] was over 5.00. The IC50 at 48 h in data set [2] was over 10 µM.
The corresponding values for `O=C(Nc1cccc(-c2cc(-c3c(F)cccc3C(F)(F)F)no2)c1)C(Cl)Cl` [Compound 41, 2,2-Dichloro-N-[3-[3-(2-fluoro-6-trifluoromethylphenyl)-5-isoxazolyl]phenyl]Acetamide] are over 5.00 and over 10 µM.
The corresponding values for `COc1cccc(F)c1-c1cc(-c2cccc(NC(=O)C(Cl)Cl)c2)on1` [Compound 43, 2,2-Dichloro-N-[3-[3-(2-fluoro-6-methoxyphenyl)-5-isoxazolyl]phenyl]Acetamide] are over 5.00 and over 10 µM.
As for `O=C(Nc1cccc(-c2cc(-c3ccccc3OC(F)F)no2)c1)C(Cl)Cl` [Compound 45, 2,2-Dichloro-N-[3-[3-(2-difluoromethoxyphenyl)-5-isoxazolyl]phenyl]Acetamide], the pIC50 in data set [1] was over 5.00. For the same compound, the IC50 at 48 h in data set [2] was over 10 µM.
As for `Cc1cccc(C)c1-c1cc(-c2cccc(NC(=O)C(Cl)Cl)c2)on1` [Compound 47, 2,2-Dichloro-N-[3-[3-(2,6-dimethylphenyl)-5-isoxazolyl]phenyl]Acetamide], in data set [1], the pIC50 was over 5.00. Also, the IC50 at 48 h in data set [2] is over 5 µM.
`O=C(Nc1cccc(-c2cc(-c3c(F)cccc3I)no2)c1)C(Cl)Cl` [Compound 49, 2,2-Dichloro-N-[3-[3-(2-fluoro-6-iodophenyl)-5-isoxazolyl]phenyl]Acetamide]: the pIC50 in data set [1] is over 5.00. Moreover, in data set [2], the IC50 at 48 h was over 10 µM.
On to `Cc1ccc(Cl)c(-c2cc(-c3cccc(NC(=O)C(Cl)Cl)c3)on2)c1F` [Compound 51, 2,2-Dichloro-N-[3-[3-(6-chloro-2-fluoro-3-methylphenyl)-5-isoxazolyl]phenyl]Acetamide], for which the pIC50 in data set [1] is over 5.00. Besides, the IC50 at 48 h in data set [2] was over 10 µM.
`O=C(Nc1cccc(-c2cc(-c3c(F)ccc(F)c3Cl)no2)c1)C(Cl)Cl` [Compound 53, 2,2-Dichloro-N-[3-[3-(2-chloro-3,6-difluorophenyl)-5-isoxazolyl]phenyl]Acetamide]: in data set [1], the pIC50 was over 5.00. The IC50 at 48 h in data set [2] was over 10 µM.
For `CCOc1ccccc1-c1cc(-c2cccc(NC(=O)C(Cl)Cl)c2)on1` [Compound 61, 2,2-Dichloro-N-[3-[3-(2-ethoxyphenyl)-5-isoxazolyl]phenyl]Acetamide], in that order: over 5.00 and over 10 µM.
For `CC(C)c1ccccc1-c1cc(-c2cccc(NC(=O)C(Cl)Cl)c2)on1` [Compound 63, 2,2-Dichloro-N-[3-[3-(2-isopropylphenyl)-5-isoxazolyl]phenyl]Acetamide], the pIC50 in data set [1] was over 5.00. The IC50 at 48 h in data set [2] is over 10 µM.
The corresponding values for `CN(C)c1cc(Cl)c(-c2cc(-c3cccc(NC(=O)C(Cl)Cl)c3)on2)c(Cl)c1` [Compound 65, 2,2-Dichloro-N-[3-[3-(2,6-dichloro-4-dimethylaminophenyl)-5-isoxazolyl]phenyl]Acetamide] are over 5.00 and over 10 µM.
For `O=C(CCl)Nc1cccc(-c2cc(-c3c(Cl)cccc3Cl)no2)c1` [Compound 67, 2-Chloro-N-[3-[3-(2,6-dichlorophenyl)-5-isoxazolyl]phenyl]Acetamide], in that order: over 5.00 and over 5 µM.
For `Cc1cc(C)c(-c2cc(-c3cccc(NC(=O)C(Cl)Cl)c3)on2)c(C)c1` [Compound 69, 2,2-Dichloro-N-[3-[3-(2,4,6-trimethylphenyl)-5-isoxazolyl]phenyl]Acetamide], in that order: over 5.00 and 3 µM.
On to `COc1cccc(C(F)(F)F)c1-c1cc(-c2cccc(NC(=O)C(Cl)Cl)c2)on1` [Compound 77, 2,2-Dichloro-N-[3-[3-(2-methoxy-6-trifluoromethylphenyl)-5-isoxazolyl]phenyl]Acetamide], for which the pIC50 in data set [1] is over 5.00. In data set [2], the IC50 at 48 h was over 10 µM.
For `O=C(Nc1cccc(-c2cc(-c3c(Cl)cccc3C3CC3)no2)c1)C(Cl)Cl` [Compound 79, 2,2-Dichloro-N-[3-[3-(2-chloro-6-cyclopropylphenyl)-5-isoxazolyl]phenyl]Acetamide], in that order: over 5.00 and over 10 µM.
For `COc1cccc(Cl)c1-c1cc(-c2cccc(NC(=O)C(Cl)Cl)c2)on1` [Compound 81, 2,2-Dichloro-N-[3-[3-(2-chloro-6-methoxyphenyl)-5-isoxazolyl]phenyl]Acetamide], in that order: over 5.00 and over 10 µM.
Turning to `O=C(Nc1cccc(-c2cc(-c3c(O)cccc3Cl)no2)c1)C(Cl)Cl` [Compound 83, 2,2-Dichloro-N-[3-[3-(2-chloro-6-hydroxyphenyl)-5-isoxazolyl]phenyl]Acetamide], the pIC50 in data set [1] is over 5.00. Moreover, the IC50 at 48 h in data set [2] was over 10 µM.
The corresponding values for `Cc1cccc(C(F)(F)F)c1-c1cc(-c2cccc(NC(=O)C(Cl)Cl)c2)on1` [Compound 85, 2,2-Dichloro-N-[3-[3-(2-methyl-6-trifluoromethylphenyl)-5-isoxazolyl]phenyl]Acetamide] are over 5.00 and over 10 µM.
As to `O=C(Nc1cccc(-c2cc(-c3c(C4CC4)cccc3C(F)(F)F)no2)c1)C(Cl)Cl` [Compound 89, 2,2-Dichloro-N-[3-[3-(2-cyclopropyl-6-trifluoromethylphenyl)-5-isoxazolyl]phenyl]Acetamide], the pIC50 in data set [1] was over 5.00. Besides, the IC50 at 48 h in data set [2] was over 10 µM.
For `COc1cccc(C)c1-c1cc(-c2cccc(NC(=O)C(Cl)Cl)c2)on1` [Compound 91, 2,2-Dichloro-N-[3-[3-(2-methoxy-6-methylphenyl)-5-isoxazolyl]phenyl]Acetamide], in that order: over 5.00 and over 10 µM.
For `CC(C)c1cccc(C(F)(F)F)c1-c1cc(-c2cccc(NC(=O)C(Cl)Cl)c2)on1` [Compound 93, 2,2-Dichloro-N-[3-[3-(2-isopropyl-6-trifluoromethylphenyl)-5-isoxazolyl]phenyl]Acetamide], in that order: over 5.00 and over 10 µM.
For `O=C(Nc1cccc(-c2cc(-c3c(Cl)cccc3C3CCCC3)no2)c1)C(Cl)Cl` [Compound 97, 2,2-Dichloro-N-[3-[3-(2-chloro-6-cyclopentylphenyl)-5-isoxazolyl]phenyl]Acetamide], in that order: over 5.00 and over 10 µM.
For the compound `CCCCc1cccc(Cl)c1-c1cc(-c2cccc(NC(=O)C(Cl)Cl)c2)on1` [Compound 103, 2,2-Dichloro-N-[3-[3-(2-chloro-6-n-butylphenyl)-5-isoxazolyl]phenyl]Acetamide], the pIC50 in data set [1] is over 5.00. The IC50 at 48 h in data set [2] was over 10 µM.
Regarding `O=C(Nc1cccc(-c2cc(-c3c(C4CCCC4)cccc3C(F)(F)F)no2)c1)C(Cl)Cl` [Compound 105, 2,2-Dichloro-N-[3-[3-(2-cyclopentyl-6-trifluoromethylphenyl)-5-isoxazolyl]phenyl]Acetamide], in data set [1], the pIC50 was over 5.00. For the same compound, in data set [2], the IC50 at 48 h was over 5 µM.
The corresponding values for `CN1CCN(c2cccc(C(F)(F)F)c2-c2cc(-c3cccc(NC(=O)C(Cl)Cl)c3)on2)CC1` [Compound 109, 2,2-Dichloro-N-[3-[3-[2-trifluoromethyl-6-(4-methylpiperazino)phenyl]-5-isoxazolyl]-phenyl]Acetamide] are over 5.00 and over 10 µM.
The corresponding values for `O=C(Nc1cccc(-c2cc(-c3c(Cl)cccc3C3CCCCC3)no2)c1)C(Cl)Cl` [Compound 111, 2,2-Dichloro-N-[3-[3-(2-chloro-6-cyclohexylphenyl)-5-isoxazolyl]phenyl]Acetamide] are over 5.00 and over 10 µM.

One may read the pIC50 as −log10 of the IC50, conventionally taken in molar units. The IC50 is the concentration needed to halve the response being measured.
